Legend:
[1] = molecular target: T1, recombinant human mGluR4a receptors (Homo sapiens, UniProt Q14833); experiment: mGluR4 assay on HEK-expressing human mGluR4: fluorescent cell based Ca2+ mobilization assay (FLIPR); details: HEK-293 cells expressing hmGluR4; potentiation of EC25 glutamate; mean of at least three independent experiments in duplicate; read-out: Ca^2+ Flux (mean EC50)
T1 construct: expressed in transfected cells
Excerpt: mGluR4 Assay on HEK-Expressing Human mGluR4
The compounds of the present invention are positive allosteric modulators of mGluR4 receptor. Their activity was examined on recombinant human mGluR4a receptors by detecting changes in intracellular Ca^2+ concentration, using the fluorescent Ca^2+-sensitive dye Fluo4-(AM) and a Fluorometric Imaging Plate Reader (FLIPR, Molecular Devices, Sunnyvale, Calif.).
The cDNA encoding the human metabotropic glutamate receptor (hmGluR4), (accession number NM_000841.1, NCBI Nucleotide database browser), was subcloned into an expression vector containing also the hygromycin resistance gene. In parallel, the cDNA encoding a G protein allowing redirection of the activation signal to intracellular calcium flux was subcloned into a different expression vector containing also the puromycin resistance gene. Transfection of both these vectors into HEK293 cells with PolyFect reagent (Qiagen) according to supplier's protocol, and hygromycin and puromycin treatment allowed selection of antibiotic resistant cells which had integrated stably one or more copies of the plasmids. Positive cellular clones expressing hmGluR4 were identified in a functional assay measuring changes in calcium fluxes in response to glutamate or selective known mGluR4 orthosteric agonists and antagonists.
HEK-293 cells expressing hmGluR4 were maintained in media containing DMEM, dialyzed Fetal Calf Serum (10%), Glutamax™ (2 mM), Penicillin (100 units/mL), Streptomycin (100 μg/mL), Geneticin (100 μg/mL) and Hygromycin-B (40 μg/mL) and puromycin (1 μg/mL) at 37° C./5% CO2.
Human mGluR4 HEK-293 cells were plated out 24 hours prior to FLIPR^384 assay in black-walled, clear-bottomed, poly-L-ornithine-coated 384-well plates at a density of 25,000 cells/well in a glutamine/glutamate free DMEM medium containing foetal bovine serum (10%), penicillin (100 units/mL) and streptomycin (100 μg/mL) at 37° C./5% CO2.
On the day of the assay, the medium was aspirated and the cells were loaded with a 3 μM solution of Fluo-4-AM (LuBioScience, Lucerne, Switzerland) in 0.03% pluronic acid. After 1 hour at 37° C./5% CO2, the non incorporated dye was removed by washing cell plate with the assay buffer and the cells were left in the dark at room temperature for […] before testing. All assays were performed in a pH 7.4 buffered-solution containing 20 mM HEPES, 143 mM NaCl, 6 mM KCl, 1 mM MgSO4, 1 mM CaCl2, 0.125 mM sulfapyrazone and 0.1% glucose.
After 10 s of basal fluorescence recording, various concentrations of the compounds of the invention were added to the cells. Changes in fluorescence levels were first monitored for 180 s in order to detect any agonist activity of the compounds. Then the cells were stimulated by an EC25 glutamate concentration for an additional 110 s in order to measure enhancing activities of the compounds of the invention. EC25 glutamate concentration is the concentration giving 25% of the maximal glutamate response.
The concentration-response curves of representative compounds of the present invention were generated using the Prism GraphPad software (Graph Pad Inc, San Diego, USA). The curves were fitted to a four-parameter logistic equation: (Y=Bottom+(Top-Bottom)/(1+10^((Log EC50−X)*Hill Slope) allowing the determination of EC50 values.
The Table 4 below represents the mean EC50 obtained from at least three independent experiments of selected molecules performed in duplicate.

T1 sequence (Q14833 33-912): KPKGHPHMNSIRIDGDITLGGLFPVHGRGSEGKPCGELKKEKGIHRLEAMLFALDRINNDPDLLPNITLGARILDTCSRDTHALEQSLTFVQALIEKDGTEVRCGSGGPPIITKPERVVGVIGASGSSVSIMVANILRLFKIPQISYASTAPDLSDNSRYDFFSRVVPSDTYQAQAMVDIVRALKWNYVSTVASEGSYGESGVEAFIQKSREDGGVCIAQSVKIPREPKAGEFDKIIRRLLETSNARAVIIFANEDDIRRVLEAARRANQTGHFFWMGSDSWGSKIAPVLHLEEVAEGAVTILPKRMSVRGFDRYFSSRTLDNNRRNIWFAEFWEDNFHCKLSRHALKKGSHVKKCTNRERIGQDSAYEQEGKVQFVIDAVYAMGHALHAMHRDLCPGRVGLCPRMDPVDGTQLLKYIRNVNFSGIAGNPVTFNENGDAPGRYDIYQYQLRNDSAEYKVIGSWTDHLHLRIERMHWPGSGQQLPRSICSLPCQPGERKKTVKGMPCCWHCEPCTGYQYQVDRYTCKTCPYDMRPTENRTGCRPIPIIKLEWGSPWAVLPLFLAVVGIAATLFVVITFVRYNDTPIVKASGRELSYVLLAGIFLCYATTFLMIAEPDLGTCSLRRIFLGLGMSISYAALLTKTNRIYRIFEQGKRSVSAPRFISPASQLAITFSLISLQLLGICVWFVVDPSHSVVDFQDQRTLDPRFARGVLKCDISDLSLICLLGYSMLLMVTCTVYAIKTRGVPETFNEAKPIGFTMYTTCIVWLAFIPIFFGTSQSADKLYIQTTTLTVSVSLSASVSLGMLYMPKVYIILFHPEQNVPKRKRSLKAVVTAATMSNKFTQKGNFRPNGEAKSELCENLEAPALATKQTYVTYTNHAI

Row | SMILES | melting point | EC50 [1]
1 | Cc1n[nH]cc1-c1nsc(Oc2ccccc2)n1 [Compound 1-1, 3-(3-Methyl-1H-pyrazol-4-yl)-5-phenoxy-1,2,4-thiadiazole] | 165 to 166 °C | 1000 to 10000 nM
2 | Cc1n[nH]cc1-c1csc(Oc2cccc(Cl)n2)n1 [Compound 1-7, 2-(6-Chloropyridin-2-yloxy)-4-(3-methyl-1H-pyrazol-4-yl)thiazole] | 158 to 161 °C | < 100 nM
3 | Cc1n[nH]cc1-c1csc(Oc2ncccc2F)n1 [Compound 1-8, 2-(3-Fluoropyridin-2-yloxy)-4-(3-methyl-1H-pyrazol-4-yl)thiazole] | 160 °C | –
4 | CC(=O)c1n[nH]cc1-c1csc(Oc2cccc(C)n2)n1 [Compound 1-9, 1-(4-(2-(6-Methylpyridin-2-yloxy)thiazol-4-yl)-1H-pyrazol-3-yl)ethanone] | 194 to 195 °C | –
5 | N#Cc1sc(Oc2cccc(Cl)n2)nc1-c1cn[nH]c1 [Compound 1-21, 2-(6-Chloropyridin-2-yloxy)-4-(1H-pyrazol-4-yl)thiazole-5-carbonitrile] | – | < 100 nM

Second part, the compound after the results:

Row | melting point | EC50 [1] | SMILES
6 | 245 to 247 °C | < 100 nM | FC(F)(F)c1n[nH]cc1-c1nsc(Oc2ccccn2)n1 [Compound 1-2, 5-(Pyridin-2-yloxy)-3-(3-(trifluoromethyl)-1H-pyrazol-4-yl)-1,2,4-thiadiazole]
7 | 177 °C | – | Cc1[nH]ncc1-c1csc(Oc2ncccn2)n1 [Compound 1-4, 4-(5-Methyl-1H-pyrazol-4-yl)-2-(pyrimidin-2-yloxy)thiazole]
8 | 131 to 135 °C | 100 to 1000 nM | Fc1cccc(F)c1Oc1nc(-c2cn[nH]c2)cs1 [Compound 1-5, 2-(2,6-Difluorophenoxy)-4-(1H-pyrazol-4-yl)thiazole]
9 | 151 to 152 °C | – | c1ccc(Oc2nc(-c3cn[nH]c3)cs2)nc1 [Compound 1-6, 4-(1H-Pyrazol-4-yl)-2-(pyridin-2-yloxy)thiazole]
10 | 176 to 178 °C | < 100 nM | Cc1cccc(Oc2nc(-c3cn[nH]c3)cs2)n1 [Compound 1-10, 2-(6-Methylpyridin-2-yloxy)-4-(1H-pyrazol-4-yl)thiazole]
11 | 138 to 139 °C | – | Cc1cccc(Oc2nc(-c3c[nH]nc3C)cs2)n1 [Compound 1-11, 4-(3-Methyl-1H-pyrazol-4-yl)-2-(6-methylpyridin-2-yloxy)thiazole]
12 | – | 100 to 1000 nM | Fc1ccc(Oc2nc(-c3cn[nH]c3)cs2)nc1 [Compound 1-18, 2-(5-Fluoropyridin-2-yloxy)-4-(1H-pyrazol-4-yl)thiazole]

From US8513252B2, “Pyrazole derivatives and their use as positive allosteric modulators of metabotropic glutamate receptors” (Addex Pharma S.A., priority 2009, dated 2013)
